Like-named read-outs stand apart in the source and are kept apart here.
Biological target: T1, Human Factor D (Homo sapiens, UniProt P00746)
T1 construct: purified from human serum; purchased Complement Technology, Inc; host or cells: human serum
Assay: Human Factor D assay (Example 8)
Format: biochemical
Outline: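 IC50 values derive from nonlinear regression of Factor D reaction rates against compound concentration. The enzyme, purified from human serum, is used at 80 nM final with a 5 min room-temperature compound preincubation in 50 mM Tris, 1M NaCl, pH 7.5, before 100 μM Z-L-Lys-SBzl plus 100 μM DTNB are added.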

[1] = Table 2, Human Factor D 80 nM, substrate Z-L-Lys-SBzl, read-out: IC50
[2] = Table 3, Human Factor D 80 nM, substrate Z-L-Lys-SBzl, read-out: IC50 (Stars)
[3] = Table 1, Human Factor D 80 nM, substrate Z-L-Lys-SBzl, read-out: IC50

T1 sequence (P00746 26-253): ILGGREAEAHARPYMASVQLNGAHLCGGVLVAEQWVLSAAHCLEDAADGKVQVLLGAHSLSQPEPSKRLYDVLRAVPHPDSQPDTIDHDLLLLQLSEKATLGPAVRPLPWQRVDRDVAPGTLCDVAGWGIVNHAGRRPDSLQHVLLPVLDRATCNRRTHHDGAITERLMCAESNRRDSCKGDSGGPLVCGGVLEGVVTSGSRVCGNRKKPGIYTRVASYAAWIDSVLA

Structure (SMILES): O=C(NCc1cccc(Cl)c1F)[C@@H]1C[C@@H](F)CN1C(=O)Cn1cc(-c2cnco2)c2ccccc21 [Compound 133, (2S,4R)-N-(3-chloro-2-fluorobenzyl)-4-fluoro-1-(2-(3-(oxazol-5-yl)-1H-indol-1-yl)acetyl) pyrrolidine-2-carboxamide]
- IC50 [1]: < 1 µM

Structure (SMILES): CC(=O)c1cc(CC(=O)N2C[C@H](F)C[C@H]2C(=O)Nc2cccc(-c3ccccc3Cl)c2F)n2ccccc12 [Compound 312, (2S,4R)-1-(2-(1-Acetylindolizin-3-yl)acetyl)-N-(2′-chloro-2-fluorobiphenyl-3-yl)-4-fluoropyrrolidine-2-carboxamide]
- IC50 [2]: < 1 µM

Structure (SMILES): CC(=O)c1cn(CC(=O)N2CC[C@@H](OCC3CC3)[C@H]2C(=O)NCc2cccc(Cl)c2F)c2ccccc12 [Compound 18, (2S,3R)-1-(2-(3-acetyl-1H-indol-1-yl)acetyl)-N-(3-chloro-2-fluorobenzyl)-3-(cyclopropylmethoxy) pyrrolidine-2-carboxamide]
- IC50 [3]: < 1 µM

Structure (SMILES): CC(=O)n1cc(NC(=O)[C@H]2CCCN2C(=O)Nc2cccc(OC(F)(F)F)c2F)c2ccccc21 [Compound 16, (R)-N2-(1-acetyl-1H-indol-3-yl)-N1-(2-fluoro-3-(trifluoromethoxy)phenyl)pyrrolidine-1,2-dicarboxamide]
- IC50 [3]: > 10 µM

Structure (SMILES): NC(=O)c1nn(CC(=O)N2C[C@H](F)C[C@H]2C(=O)Nc2cccc(-c3cc(F)c(F)cc3Cl)c2F)c2cnccc12 [Compound 83, 1-(2-((2S,4R)-2-(2′-chloro-2,4′,5′-trifluorobiphenyl-3-ylcarbamoyl)-4-fluoropyrrolidin-1-yl)-2-oxoethyl)-1H-pyrazolo[3,4-c]pyridine-3-carboxamide]
- IC50 [3]: < 1 µM

Structure (SMILES): NC(=O)c1nn(CC(=O)N2C[C@H](F)C[C@H]2C(=O)Nc2cccc(-c3cc(F)c(F)cc3Cl)c2F)c2ccccc12 [Compound 80, 1-(2-((2S,4R)-2-((2′-Chloro-2,4′,5′-trifluoro-[1,1′-biphenyl]-3-yl)carbamoyl)-4-fluoropyrrolidin-1-yl)-2-oxoethyl)-1H-indazole-3-carboxamide]
- IC50: < 1 µM

Structure (SMILES): NC(=O)N1C[C@H](F)C[C@H]1Cn1cc(-c2ccc(F)c(Cl)c2)nn1 [Compound 30, (2S,4R)-2-((4-(3-chloro-4-fluorophenyl)-1H-1,2,3-triazol-1-yl)methyl)-4-fluoropyrrolidine-1-carboxamide]
- IC50 [3]: > 10 µM

Structure (SMILES): CC(=O)c1nn(CC(=O)N2C[C@H](F)C[C@H]2C(=O)Nc2cccc(-c3ccc4c(c3)NCCC4)c2F)c2ccccc12 [Compound 450, (2S,4R)-1-(2-(3-Acetyl-1H-indazol-1-yl)acetyl)-4-fluoro-N-(2-fluoro-3-(1,2,3,4-tetrahydroquinolin-7-yl)phenyl)pyrrolidine-2-carboxamide]
- IC50 [2]: < 1 µM

Structure (SMILES): CC(=O)n1cc(NC(=O)[C@@H]2C[C@H](F)CN2C(=O)NCc2cccc(Cl)c2F)c2ccccc21 [Compound 4, (2S,4S)-N2-(1-acetyl-1H-indol-3-yl)-N1-(3-chloro-2-fluorobenzyl)-4-fluoropyrrolidine-1,2-dicarboxamide]
- IC50 [3]: > 10 µM

Structure (SMILES): CC(=O)c1nn(CC(=O)N2C[C@H](F)C[C@H]2C(=O)Nc2cccc(-c3cccc4nc[nH]c34)c2F)c2ccccc12 [Compound 457, (2S,4R)-N-(3-(1H-benzo[d]imidazol-7-yl)-2-fluorophenyl)-1-(2-(3-acetyl-1H-indazol-1-yl)acetyl)-4-fluoropyrrolidine-2-carboxamide]
- IC50 [2]: < 1 µM

Structure (SMILES): NC(=O)c1cn(CC(=O)N2CCS[C@H]2C(=O)Nc2cccc(-c3ccccc3Cl)c2F)c2ccccc12 [Compound 375, (S)-3-(2-(3-carbamoyl-1H-indol-1-yl)acetyl)-N-(2′-chloro-2-fluoro-[1,1′-biphenyl]-3-yl)thiazolidine-2-carboxamide]
- IC50 [2]: < 1 µM

Structure (SMILES): Cc1cc2c(s1)c(C(N)=O)nn2CC(=O)N1C[C@H](F)C[C@H]1C(=O)Nc1cccc(-c2ccccc2Cl)c1F [Compound 113, 1-(2-((2S,4R)-2-((2′-Chloro-2-fluoro-[1,1′-biphenyl]-3-yl)carbamoyl)-4-fluoropyrrolidin-1-yl)-2-oxoethyl)-5-methyl-1H-thieno[3,2-c]pyrazole-3-carboxamide]
- IC50 [3]: < 1 µM

Structure (SMILES): O=C(NCc1cccc(Cl)c1F)[C@@H]1C[C@@H](F)CN1C(=O)Cn1nc(-c2cnc[nH]2)c2ccncc21 [Compound 75, (2S,4R)-1-(2-(3-(1H-imidazol-5-yl)-1H-pyrazolo[3,4-c]pyridin-1-yl)acetyl)-N-(3-chloro-2-fluorobenzyl)-4-fluoropyrrolidine-2-carboxamide]
- IC50 [3]: < 1 µM

Structure (SMILES): O=C(NCc1cccc(Cl)c1F)[C@@H]1C[C@@H](F)CN1C(=O)CN1C=NS(=O)(=O)c2ccccc21 [Compound 65, (2S,4R)-N-(3-chloro-2-fluorobenzyl)-1-(2-(1,1-dioxido-4H-benzo[e][1,2,4]thiadiazin-4-yl)acetyl)-4-fluoropyrrolidine-2-carboxamide]
- IC50 [3]: > 10 µM

Structure (SMILES): CO[C@H]1[C@@H](C(=O)Nc2cccc(-c3ccccc3Cl)c2F)N(C(=O)Cn2nc(C(N)=O)c3ccccc32)C[C@@H]1F [Compound 289, 1-(2-((2S,3S,4S)-2-(2′-Chloro-2-fluorobiphenyl-3-ylcarbamoyl)-4-fluoro-3-methoxypyrrolidin-1-yl)-2-oxoethyl)-1H-indazole-3-carboxamide]
- IC50 [2]: < 1 µM

Structure (SMILES): CC(=O)c1cn(CC(=O)N2C[C@H](F)C[C@H]2C(=O)Nc2cccc(-c3ccccc3Cl)c2F)c2c(C#Cc3ncc(F)cn3)cccc12 [Compound 124, (2S,4R)-1-(2-(3-acetyl-7-((5-fluoropyrimidin-2-yl)ethynyl)-1H-indol-1-yl)acetyl)-N-(2′-chloro-2-fluorobiphenyl-3-yl)-4-fluoropyrrolidine-2-carboxamide]
- IC50: < 1 µM

Structure (SMILES): NC(=O)c1nn(CC(=O)N2C[C@H](F)C[C@H]2C(=O)Nc2cccc(-c3ccccc3Cl)c2F)c2c1CCCC2 [Compound 104, 1-(2-((2S,4R)-2-((2′-chloro-2-fluoro-[1,1′-biphenyl]-3-yl)carbamoyl)-4-fluoropyrrolidin-1-yl)-2-oxoethyl)-4,5,6,7-tetrahydro-1H-indazole-3-carboxamide]
- IC50 [3]: < 1 µM

Structure (SMILES): O=C(NCc1cccc(Cl)c1F)[C@@H]1C[C@@H](F)CN1C(=O)Nc1cn(C(=O)C2CC2)c2ccccc12 [Compound 54, (2S,4R)-N2-(3-chloro-2-fluorobenzyl)-N1-(1-(cyclopropanecarbonyl)-1H-indol-3-yl)-4-fluoropyrrolidine-1,2-dicarboxamide]
- IC50 [3]: < 1 µM

Structure (SMILES): O=C(Nc1cccc(-c2ccccc2Cl)c1F)[C@@H]1C[C@@H](F)CN1C(=O)Cn1c(=O)[nH]c2ccccc21 [Compound 142, (2S,4R)-N-(2′-chloro-2-fluorobiphenyl-3-yl)-4-fluoro-1-(2-(2-oxo-2,3-dihydro-1H-benzo[d]imidazol-1-yl)acetyl) pyrrolidine-2-carboxamide]
- IC50 [1]: < 1 µM

Structure (SMILES): NC(=O)c1cn(CC(=O)N2C[C@H](F)C[C@H]2C(=O)Nc2cccc(-c3ccccc3Cl)c2F)c2sccc12 [Compound 98, 6-(2-((2S,4R)-2-(2′-chloro-2-fluorobiphenyl-3-ylcarbamoyl)-4-fluoropyrrolidin-1-yl)-2-oxoethyl)-6H-thieno[2,3-b]pyrrole-4-carboxamide]
- IC50 [3]: < 1 µM

Structure (SMILES): CC(=O)c1nn(CC(=O)N2C[C@H](F)C[C@H]2C(=O)Nc2cccc(-c3ccc4nc[nH]c4c3F)c2F)c2ccccc12 [Compound 455, (2S,4R)-1-(2-(3-acetyl-1H-indazol-1-yl)acetyl)-4-fluoro-N-(2-fluoro-3-(7-fluoro-1H-benzo[d]imidazol-6-yl)phenyl)pyrrolidine-2-carboxamide]
- IC50 [2]: < 1 µM

Structure (SMILES): CC(=O)n1cc(NC(=O)Nc2cn(C(C)=O)c3ccccc23)c2ccccc21 [Compound 20, 1,3-bis(1-acetyl-1H-indol-3-yl)urea]
- IC50 [3]: > 10 µM

Structure (SMILES): COC(=O)/C=C/c1cccc(NC(=O)[C@@H]2C[C@@H](F)CN2C(=O)Cn2nc(C(N)=O)c3ccccc32)c1F [Compound 389, (E)-methyl 3-(3-((2S,4R)-1-(2-(3-carbamoyl-1H-indazol-1-yl)acetyl)-4-fluoropyrrolidine-2-carboxamido)-2-fluorophenyl) acrylate]
- IC50 [2]: 1 to 10 µM

Structure (SMILES): CC(=O)c1nn(CC(=O)N2C[C@H](F)C[C@H]2C(=O)Nc2cccc(-c3ccccc3Cl)c2F)c2cc(C)sc12 [Compound 131, (2S,4R)-1-(2-(3-acetyl-5-methyl-1H-thieno[3,2-c]pyrazol-1-yl)acetyl)-N-(2′-chloro-2-fluorobiphenyl-3-yl)-4-fluoropyrrolidine-2-carboxamide]
- IC50 [1]: < 1 µM

Structure (SMILES): NC(=O)c1cn(CC(=O)N2C[C@H](F)C[C@H]2c2nc3cc(-c4ccccc4Cl)ccc3[nH]2)c2ccccc12 [Compound 121, 1-(2-((2S,4R)-2-(5-(2-chlorophenyl)-1H-benzo[d]imidazol-2-yl)-4-fluoropyrrolidin-1-yl)-2-oxoethyl)-1H-indole-3-carboxamide]
- IC50: > 10 µM

Structure (SMILES): NC(=O)c1nn(CC(=O)N2C[C@@H](O)C[C@H]2C(=O)Nc2cccc(-c3ccccc3Cl)c2F)c2ccccc12 [Compound 354, 1-(2-((2S,4S)-2-((2′-chloro-2-fluoro-[1,1′-biphenyl]-3-yl)carbamoyl)-4-hydroxypyrrolidin-1-yl)-2-oxoethyl)-1H-indazole-3-carboxamide]
- IC50 [2]: < 1 µM

Structure (SMILES): O=C(c1cn(CC(=O)N2[C@@H]3C[C@@H]3C[C@H]2C(=O)NCc2cccc(Cl)c2F)c2ccccc12)C1CC1 [Compound 22, (1R,3S,5R)-N-(3-chloro-2-fluorobenzyl)-2-(2-(3-(cyclopropanecarbonyl)-1H-indol-1-yl)acetyl)-2-azabicyclo[3.1.0] hexane-3-carboxamide]
- IC50: < 1 µM

Structure (SMILES): CC(=O)n1cc(NC(=O)N2C[C@H](F)C[C@H]2C(=O)NS(=O)(=O)c2cccc(Cl)c2F)c2ccccc21 [Compound 7, (2S,4R)-N1-(1-acetyl-1H-indol-3-yl)-N2-(3-chloro-2-fluorophenylsulfonyl)-4-fluoropyrrolidine-1,2-dicarboxamide]
- IC50 [3]: > 10 µM

From patent US10092584B2 (Achillion Pharmaceuticals, Inc., priority 2015, dated 2018)
